Laboratory results reported in patent publication US11999700B1, “[4,4-bis(4-nitrophenyl)-2,5-dioxoimidazolidin-1-yl]acetic acid as an antimicrobial compound” (KING FAISAL UNIVERSITY, priority 2023, dated 2024).

Experiments:
Assay type in all cases: cell-based
[1] = test system: Candida albicans; test: Antimicrobial testing by agar dilution, Candida albicans; settings: Candida albicans fungi, after 10, 20, 40 and 60 minutes at all dilutions 1:100, 1:200, 1:400, 1:800
Protocol: (§1) The antimicrobial properties of the [4,4-bis(4-nitrophenyl)-2,5-dioxoimidazolidin-1-yl]acetic acid were studied by the method of agar dilution. Test solutions of each compound was prepared in concentration of 1% using dimethylformamide as a solvent then they are diluted in physiological solution to obtain the final experimental dilutions 1:100, 1:200, 1:400, 1:800. The effect of these substances are compared with furacillin in a controlable study. The testing microbes used were gram positive bacteria Staphylococcus Aereus, gram negative bacteria Escherichia Coli, Pseudomonas aeruginosa and Candida albicans fungi were taken.
(§2) The experiments used for this survey were meat-pentonlu agar (EPA) for cultivation of bacteria and Saburo environment for fungi. Each experiment used 1 ml of test solution on each plate 500 min. Add 2 drops of emulsified with microbes feel. All experimental samples were taken from the agar after 10, 20, 40, 60 minutes in the environment on the basis of Patrk planted. Bacteria were cultivated at a temperature of 37° C. for 1 day and the mushroom was kept in a thermostat for […] at a temperature of 28° C. in the. Then results were checked.

[2] = test system: Pseudomonas aeruginosa; test: Antimicrobial testing by agar dilution, Ps. aeruginosa; settings: after 10, 20, 40 and 60 minutes at all dilutions 1:100, 1:200, 1:400, 1:800
Protocol: as §1, §2

[3] = test system: Staphylococcus Aereus; test: Antimicrobial testing by agar dilution, St. Aereus; settings: after 10, 20, 40 and 60 minutes at all dilutions 1:100, 1:200, 1:400, 1:800
Protocol: as §1, §2

[4] = test system: Escherichia Coli; test: Antimicrobial testing by agar dilution, E. Coli; settings: after 10, 20, 40 and 60 minutes at all dilutions 1:100, 1:200, 1:400, 1:800
Protocol: as §1, §2

Measured: inhibition activity

O=C(O)CN1C(=O)NC(c2ccc([N+](=O)[O-])cc2)(c2ccc([N+](=O)[O-])cc2)C1=O [[4,4-bis(4-nitrophenyl)-2,5-dioxoimidazolidin-1-yl]acetic acid]
higher inhibition activity: [1] | [2] | [3] | [4]
